Laboratory results as given in ChEMBL document CHEMBL4304811, “Development of a Water-Soluble Indolylmaleimide Derivative IM-93 Showing Dual Inhibition of Ferroptosis and NETosis” (ACS Med Chem Lett, 2019).

Key:
[1] = molecular target: Tyrosine-protein kinase ABL2 (Homo sapiens) (UniProt P42684); assay: Binding affinity to wild-type human ABL2 (A248 to G542 residues) expressed in bacterial expression system assessed as residual binding level at 10 uM by Kinomescan method relative to control
[2] = molecular target: Activin receptor type-1B (Homo sapiens) (UniProt P36896); assay: Binding affinity to wild-type human ACVR1B (S187 to I505 residues) expressed in bacterial expression system assessed as residual binding level at 10 uM by Kinomescan method relative to control
[3] = molecular target: 5'-AMP-activated protein kinase catalytic subunit alpha-1 (Homo sapiens) (UniProt Q13131); assay: Binding affinity to wild-type human partial length AMPK alpha1 (M1 to E306 residues) expressed in bacterial expression system assessed as residual binding level at 10 uM by Kinomescan method relative to control
[4] = molecular target: Cytoplasmic tyrosine-protein kinase BMX (Homo sapiens) (UniProt P51813); assay: Binding affinity to wild-type human full length BMX (M1 to H675 residues) expressed in bacterial expression system assessed as residual binding level at 10 uM by Kinomescan method relative to control
[5] = molecular target: Tyrosine-protein kinase BTK (Homo sapiens) (UniProt Q06187); assay: Binding affinity to wild-type human full length BTK (M1 to S659 residues) expressed in mammalian expression system assessed as residual binding level at 10 uM by Kinomescan method relative to control
[6] = molecular target: Mitotic checkpoint serine/threonine-protein kinase BUB1 (Homo sapiens) (UniProt O43683); assay: Binding affinity to wild-type human partial length BUB1 (Q724 to K1085 residues) expressed in mammalian expression system assessed as residual binding level at 10 uM by Kinomescan method relative to control
[7] = molecular target: Peripheral plasma membrane protein CASK (Homo sapiens) (UniProt O14936); assay: Binding affinity to wild-type human partial length CASK (M1 to H315 residues) expressed in mammalian expression system assessed as residual binding level at 10 uM by Kinomescan method relative to control
[8] = molecular target: Cyclin-dependent kinase 9 (Homo sapiens) (UniProt P50750); assay: Binding affinity to wild-type human full length CDK9 (M1 to F372 residues) expressed in bacterial expression system assessed as residual binding level at 10 uM by Kinomescan method relative to control
[9] = molecular target: Myotonin-protein kinase (Homo sapiens) (UniProt Q09013); assay: Binding affinity to wild-type human partial length DMPK (V47 to V415 residues) expressed in bacterial expression system assessed as residual binding level at 10 uM by Kinomescan method relative to control
[10] = molecular target: Ephrin type-A receptor 1 (Homo sapiens) (UniProt P21709); assay: Binding affinity to wild-type human partial length EPHA1 (V588 to I913 residues) expressed in bacterial expression system assessed as residual binding level at 10 uM by Kinomescan method relative to control
[11] = molecular target: Ephrin type-A receptor 7 (Homo sapiens) (UniProt Q15375); assay: Binding affinity to wild-type human partial length EPHA7 (Y608 to S912 residues) expressed in bacterial expression system assessed as residual binding level at 10 uM by Kinomescan method relative to control
[12] = molecular target: Receptor tyrosine-protein kinase erbB-4 (Homo sapiens) (UniProt Q15303); assay: Binding affinity to wild-type human partial length ERBB4 (L690 to K994 residues) expressed in bacterial expression system assessed as residual binding level at 10 uM by Kinomescan method relative to control
[13] = molecular target: Mitogen-activated protein kinase 7 (Homo sapiens) (UniProt Q13164); assay: Binding affinity to wild-type human partial length ERK5 (M1 to A409 residues) expressed in bacterial expression system assessed as residual binding level at 10 uM by Kinomescan method relative to control
[14] = molecular target: Myosin light chain kinase, smooth muscle (Homo sapiens) (UniProt Q15746); assay: Binding affinity to wild-type human full length MYLK (M854 to E1845 residues) expressed in mammalian expression system assessed as residual binding level at 10 uM by Kinomescan method relative to control
[15] = molecular target: Serine/threonine-protein kinase Nek3 (Homo sapiens) (UniProt P51956); assay: Binding affinity to wild-type human full length NEK3 (M1 to R506 residues) expressed in mammalian expression system assessed as residual binding level at 10 uM by Kinomescan method relative to control
[16] = molecular target: Serine/threonine-protein kinase NLK (Homo sapiens) (UniProt Q9UBE8); assay: Binding affinity to wild-type human full length NLK (M13 to E527 residues) expressed in bacterial expression system assessed as residual binding level at 10 uM by Kinomescan method relative to control
[17] = molecular target: Serine/threonine-protein kinase PAK 5 (Homo sapiens) (UniProt Q9P286); assay: Binding affinity to wild-type human partial length PAK7 (Y400 to H719 residues) expressed in bacterial expression system assessed as residual binding level at 10 uM by Kinomescan method relative to control
[18] = molecular target: Phosphorylase b kinase gamma catalytic chain, skeletal muscle/heart isoform (Homo sapiens) (UniProt Q16816); assay: Binding affinity to wild-type human full length PHKG1 (M1 to Y387 residues) expressed in bacterial expression system assessed as residual binding level at 10 uM by Kinomescan method relative to control
[19] = molecular target: Phosphatidylinositol 4-kinase beta (Homo sapiens) (UniProt Q9UBF8); assay: Binding affinity to wild-type human full length PIK4CB (M1 to M828 residues) expressed in mammalian expression system assessed as residual binding level at 10 uM by Kinomescan method relative to control
[20] = molecular target: Interferon-induced, double-stranded RNA-activated protein kinase (Homo sapiens) (UniProt P19525); assay: Binding affinity to wild-type human partial length PRKR (F247 to C551 residues) expressed in bacterial expression system assessed as residual binding level at 10 uM by Kinomescan method relative to control
[21] = molecular target: Proto-oncogene tyrosine-protein kinase Src (Homo sapiens) (UniProt P12931); assay: Binding affinity to wild-type human partial length SRC (L240 to L536 residues) expressed in bacterial expression system assessed as residual binding level at 10 uM by Kinomescan method relative to control
[22] = molecular target: Serine/threonine-protein kinase TNNI3K (Homo sapiens) (UniProt Q59H18); assay: Binding affinity to wild-type human full length TNNI3K (M1 to S835 residues) expressed in bacterial expression system assessed as residual binding level at 10 uM by Kinomescan method relative to control
[23] = molecular target: NT-3 growth factor receptor (Homo sapiens) (UniProt Q16288); assay: Binding affinity to wild-type human partial length TRKC (Q531 to G825 residues) expressed in mammalian expression system assessed as residual binding level at 10 uM by Kinomescan method relative to control
[24] = molecular target: Tyrosine-protein kinase ZAP-70 (Homo sapiens) (UniProt P43403); assay: Binding affinity to wild-type human partial length ZAP70 (D20 to G299 residues) expressed in mammalian expression system assessed as residual binding level at 10 uM by Kinomescan method relative to control
Sequence of Tyrosine-protein kinase ZAP-70 (Homo sapiens) (P43403 whole entry, the tested form may be a part): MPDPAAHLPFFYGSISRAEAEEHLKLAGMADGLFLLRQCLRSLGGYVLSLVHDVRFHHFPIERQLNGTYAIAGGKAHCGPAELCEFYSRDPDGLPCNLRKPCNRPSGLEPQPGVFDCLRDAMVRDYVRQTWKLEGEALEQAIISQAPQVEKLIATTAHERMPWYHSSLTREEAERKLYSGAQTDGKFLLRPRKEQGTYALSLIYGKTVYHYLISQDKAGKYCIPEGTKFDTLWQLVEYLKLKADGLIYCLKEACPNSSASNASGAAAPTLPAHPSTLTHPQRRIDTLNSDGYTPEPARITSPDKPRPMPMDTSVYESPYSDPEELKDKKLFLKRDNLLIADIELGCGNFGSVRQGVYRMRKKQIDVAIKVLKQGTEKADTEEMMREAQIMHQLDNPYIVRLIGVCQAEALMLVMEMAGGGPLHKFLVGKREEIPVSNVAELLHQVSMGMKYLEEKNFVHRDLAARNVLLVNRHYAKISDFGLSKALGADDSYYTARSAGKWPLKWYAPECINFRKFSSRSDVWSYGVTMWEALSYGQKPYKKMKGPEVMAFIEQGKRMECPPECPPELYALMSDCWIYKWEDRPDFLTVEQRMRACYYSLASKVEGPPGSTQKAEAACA

Sequence of Serine/threonine-protein kinase Nek3 (Homo sapiens) (P51956 whole entry, the tested form may be a part): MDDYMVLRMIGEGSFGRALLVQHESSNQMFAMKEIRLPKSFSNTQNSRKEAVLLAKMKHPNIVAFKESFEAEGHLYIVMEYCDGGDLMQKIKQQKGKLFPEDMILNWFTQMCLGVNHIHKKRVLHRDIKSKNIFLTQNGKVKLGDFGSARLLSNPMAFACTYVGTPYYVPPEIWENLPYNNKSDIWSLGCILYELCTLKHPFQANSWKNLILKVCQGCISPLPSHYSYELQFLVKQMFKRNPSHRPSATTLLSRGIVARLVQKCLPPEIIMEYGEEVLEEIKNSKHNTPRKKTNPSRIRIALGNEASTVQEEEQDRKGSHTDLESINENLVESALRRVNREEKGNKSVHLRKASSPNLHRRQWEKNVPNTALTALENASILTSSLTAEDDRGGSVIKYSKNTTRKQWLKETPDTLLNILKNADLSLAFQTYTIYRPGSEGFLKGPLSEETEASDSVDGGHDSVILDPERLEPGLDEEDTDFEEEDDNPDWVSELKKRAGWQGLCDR
Sequence of Ephrin type-A receptor 1 (Homo sapiens) (P21709 whole entry, the tested form may be a part): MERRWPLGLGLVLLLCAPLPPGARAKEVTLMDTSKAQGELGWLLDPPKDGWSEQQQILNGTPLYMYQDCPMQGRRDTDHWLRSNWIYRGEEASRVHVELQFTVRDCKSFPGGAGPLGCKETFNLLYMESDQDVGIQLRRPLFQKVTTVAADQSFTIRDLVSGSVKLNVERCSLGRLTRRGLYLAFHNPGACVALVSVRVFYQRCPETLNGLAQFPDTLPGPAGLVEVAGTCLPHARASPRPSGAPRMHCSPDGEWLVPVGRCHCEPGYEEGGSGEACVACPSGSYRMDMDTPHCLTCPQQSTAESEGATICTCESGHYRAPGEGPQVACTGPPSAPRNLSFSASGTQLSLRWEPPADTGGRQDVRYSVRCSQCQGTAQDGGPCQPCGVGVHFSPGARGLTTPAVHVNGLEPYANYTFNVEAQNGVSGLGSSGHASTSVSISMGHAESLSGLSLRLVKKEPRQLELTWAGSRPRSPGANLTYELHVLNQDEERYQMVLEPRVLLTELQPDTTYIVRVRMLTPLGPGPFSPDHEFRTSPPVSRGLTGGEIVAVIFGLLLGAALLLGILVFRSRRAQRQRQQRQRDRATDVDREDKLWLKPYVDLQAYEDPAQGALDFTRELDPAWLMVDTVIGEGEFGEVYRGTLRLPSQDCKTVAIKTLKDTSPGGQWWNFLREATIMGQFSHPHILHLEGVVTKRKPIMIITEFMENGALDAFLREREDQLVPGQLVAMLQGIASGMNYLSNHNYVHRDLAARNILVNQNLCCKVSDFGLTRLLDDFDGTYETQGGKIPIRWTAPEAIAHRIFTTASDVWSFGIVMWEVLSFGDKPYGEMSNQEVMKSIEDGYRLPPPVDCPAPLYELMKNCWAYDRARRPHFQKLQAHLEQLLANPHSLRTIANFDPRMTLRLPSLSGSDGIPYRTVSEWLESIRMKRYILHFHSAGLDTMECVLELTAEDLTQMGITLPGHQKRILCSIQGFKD
Sequence of Interferon-induced, double-stranded RNA-activated protein kinase (Homo sapiens) (P19525 whole entry, the tested form may be a part): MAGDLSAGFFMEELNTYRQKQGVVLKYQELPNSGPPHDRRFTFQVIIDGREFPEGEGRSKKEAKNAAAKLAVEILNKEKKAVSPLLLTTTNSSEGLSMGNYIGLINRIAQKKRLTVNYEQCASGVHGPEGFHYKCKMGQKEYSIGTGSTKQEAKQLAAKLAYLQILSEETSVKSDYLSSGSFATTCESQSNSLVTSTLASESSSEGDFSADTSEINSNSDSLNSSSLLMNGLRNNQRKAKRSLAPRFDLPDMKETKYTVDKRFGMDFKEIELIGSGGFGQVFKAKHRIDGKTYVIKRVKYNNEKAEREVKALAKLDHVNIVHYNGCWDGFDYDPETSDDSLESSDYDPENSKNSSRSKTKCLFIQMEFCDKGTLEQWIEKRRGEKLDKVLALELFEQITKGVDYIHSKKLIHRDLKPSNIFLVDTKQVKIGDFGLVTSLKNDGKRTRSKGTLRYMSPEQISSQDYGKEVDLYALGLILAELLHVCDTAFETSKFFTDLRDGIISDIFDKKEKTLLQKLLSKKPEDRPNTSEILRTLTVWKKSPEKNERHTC
Sequence of Tyrosine-protein kinase BTK (Homo sapiens) (Q06187 whole entry, the tested form may be a part): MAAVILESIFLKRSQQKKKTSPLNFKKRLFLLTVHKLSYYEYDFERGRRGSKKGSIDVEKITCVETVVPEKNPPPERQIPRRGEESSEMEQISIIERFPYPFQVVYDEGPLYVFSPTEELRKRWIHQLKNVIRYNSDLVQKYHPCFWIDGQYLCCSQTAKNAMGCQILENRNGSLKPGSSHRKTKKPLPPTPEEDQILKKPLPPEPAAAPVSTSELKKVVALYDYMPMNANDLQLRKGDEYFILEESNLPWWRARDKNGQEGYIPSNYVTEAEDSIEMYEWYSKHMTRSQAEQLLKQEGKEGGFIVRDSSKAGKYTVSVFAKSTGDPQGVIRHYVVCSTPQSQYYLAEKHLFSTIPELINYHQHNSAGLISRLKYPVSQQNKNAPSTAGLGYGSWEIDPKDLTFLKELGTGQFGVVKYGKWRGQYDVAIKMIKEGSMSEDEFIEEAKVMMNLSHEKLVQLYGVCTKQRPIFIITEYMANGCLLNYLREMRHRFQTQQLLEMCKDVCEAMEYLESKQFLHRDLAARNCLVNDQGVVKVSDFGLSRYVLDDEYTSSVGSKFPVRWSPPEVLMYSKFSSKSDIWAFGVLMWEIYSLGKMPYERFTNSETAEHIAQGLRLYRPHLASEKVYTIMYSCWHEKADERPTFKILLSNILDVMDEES
Sequence of Tyrosine-protein kinase ABL2 (Homo sapiens) (P42684 whole entry, the tested form may be a part): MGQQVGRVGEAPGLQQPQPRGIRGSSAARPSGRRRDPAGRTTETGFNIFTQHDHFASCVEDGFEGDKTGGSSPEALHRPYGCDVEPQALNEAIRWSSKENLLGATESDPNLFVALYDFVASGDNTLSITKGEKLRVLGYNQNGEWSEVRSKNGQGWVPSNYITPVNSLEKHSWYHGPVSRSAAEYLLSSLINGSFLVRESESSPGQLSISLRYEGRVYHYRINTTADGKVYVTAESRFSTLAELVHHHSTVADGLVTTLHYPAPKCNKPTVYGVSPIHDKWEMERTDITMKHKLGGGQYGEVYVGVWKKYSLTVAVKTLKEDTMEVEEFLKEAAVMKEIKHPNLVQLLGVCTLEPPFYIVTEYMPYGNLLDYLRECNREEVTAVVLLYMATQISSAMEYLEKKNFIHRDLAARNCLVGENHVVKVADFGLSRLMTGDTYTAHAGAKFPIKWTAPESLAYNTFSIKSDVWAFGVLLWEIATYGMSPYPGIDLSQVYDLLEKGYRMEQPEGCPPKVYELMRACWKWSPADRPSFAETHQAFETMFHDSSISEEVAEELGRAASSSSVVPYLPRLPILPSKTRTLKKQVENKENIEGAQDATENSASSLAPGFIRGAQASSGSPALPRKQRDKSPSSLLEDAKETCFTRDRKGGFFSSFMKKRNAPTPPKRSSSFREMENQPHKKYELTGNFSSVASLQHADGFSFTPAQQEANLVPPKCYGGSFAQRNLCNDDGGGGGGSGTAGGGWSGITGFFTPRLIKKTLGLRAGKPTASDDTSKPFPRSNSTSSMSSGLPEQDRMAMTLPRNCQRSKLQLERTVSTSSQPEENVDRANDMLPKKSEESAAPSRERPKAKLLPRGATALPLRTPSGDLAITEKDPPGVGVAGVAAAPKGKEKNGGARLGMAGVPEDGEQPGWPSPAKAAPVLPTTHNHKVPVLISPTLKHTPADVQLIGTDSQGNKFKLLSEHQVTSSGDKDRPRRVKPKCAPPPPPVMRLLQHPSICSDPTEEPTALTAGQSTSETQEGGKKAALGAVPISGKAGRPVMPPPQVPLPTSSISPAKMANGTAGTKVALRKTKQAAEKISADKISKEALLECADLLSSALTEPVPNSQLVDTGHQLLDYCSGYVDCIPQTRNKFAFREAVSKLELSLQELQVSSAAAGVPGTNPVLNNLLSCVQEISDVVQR
Sequence of Serine/threonine-protein kinase NLK (Homo sapiens) (Q9UBE8 whole entry, the tested form may be a part): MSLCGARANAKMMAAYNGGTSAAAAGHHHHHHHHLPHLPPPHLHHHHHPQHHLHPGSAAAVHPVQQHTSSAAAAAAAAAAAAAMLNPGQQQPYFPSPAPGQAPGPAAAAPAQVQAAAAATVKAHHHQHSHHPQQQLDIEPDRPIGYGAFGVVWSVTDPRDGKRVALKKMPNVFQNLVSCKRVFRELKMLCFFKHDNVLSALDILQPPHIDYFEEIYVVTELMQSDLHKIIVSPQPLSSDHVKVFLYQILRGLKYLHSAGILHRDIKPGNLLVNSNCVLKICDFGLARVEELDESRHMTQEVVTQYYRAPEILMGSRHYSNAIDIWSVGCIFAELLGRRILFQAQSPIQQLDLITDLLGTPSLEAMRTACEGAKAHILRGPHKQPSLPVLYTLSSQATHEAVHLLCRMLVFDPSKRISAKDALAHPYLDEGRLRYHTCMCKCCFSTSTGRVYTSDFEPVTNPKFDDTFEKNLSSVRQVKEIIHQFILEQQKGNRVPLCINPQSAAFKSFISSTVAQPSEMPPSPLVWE

Structure (SMILES): CC(C)N1C(=O)C(NCCCN(C)C)=C(c2cn(C)c3ccccc23)C1=O.Cl
- Activity [1]: 98%
- Activity [2]: 88%
- Activity [3]: 93%
- Activity [4]: 97%
- Activity [5]: 100%
- Activity [6]: 92%
- Activity [7]: 92%
- Activity [8]: 100%
- Activity [9]: 100%
- Activity [10]: 85%
- Activity [11]: 93%
- Activity [12]: 100%
- Activity [13]: 100%
- Activity [14]: 75%
- Activity [15]: 94%
- Activity [16]: 94%
- Activity [17]: 100%
- Activity [18]: 94%
- Activity [19]: 85%
- Activity [20]: 100%
- Activity [21]: 93%
- Activity [22]: 100%
- Activity [23]: 100%
- Activity [24]: 100%
